Legend:
[1] = test system: mice; experiment: Toxicity (minimum lethal dose) in mice; assay type: in vivo; conditions: administered subcutaneously in mice
Excerpt: The relationship between the toxicity (minimum lethal dose) of the peptide compound obtained in Examples 1 and 2 of the present invention and the effective dose is shown in Table 4.
Effective dose and minimum lethal dose
when administered subcutaneously in mice

[2] = test system: rabbit vas deferens; experiment: Opioid activity, rabbit vas deferens method (inhibition of electrically stimulated contraction); assay type: cell-based; conditions: electric stimulation 0.1 Hz, 1 ms, 90 volt
Description: The opioid activities of the compounds of the invention were examined by the method using rabbit vas deferens according to T. Oka, K. Negishi, M. Suda, T. Matsumiya, T. Inaza and M. Ueki, "Europ. J. Pharmacol.", Vol. 73, 235 (1980). In this test, mature male rabbits were sacrificed by introducing air into an […]. Immediately after death, a laparotomy was conducted and right and left vasa deferens were removed. The semen was pressed out of the ducts into Ringer's solution. A part of each duct was cut ([…] long from an end of the prostrate gland side). The pieces of the deferentaial ducts were suspened by means of a thread in a 6 ml constant-temperature glass cell and stimulated electrioally with an electric stimulation device having platinum electrodes under conditions of 0.1 Hz, 1 ms and 90 volt. A contraction due to the electric stimulation was recorded through a transducer.
The opioid activity was determined on the basis of the inhibition of the contraction due to the electric stimulation.
The results are shown in Table 3 in terms of 50% inhibitation concentration (IC50).
The following compounds obtained in the examples ere tested in the same way as described above.

Molecule | Minimum Lethal Dose [1] [mg/kg] | IC50 [2] [nM]
CC[C@H](C)[C@@H](C(=O)O)N(C)C(=O)[C@H](CCCNC(=N)N)N(C)C(=O)[C@H](CCCNC(=N)N)NC(=O)[C@H](CC(C)C)NC(=O)[C@H](Cc1ccccc1)NC(=O)CNC(=O)CNC(=O)[C@H](Cc1ccc(O)cc1)NC [Example 36, CH3 Tyr--Gly--Gly--Phe--Leu--Arg--CH3 Arg--CH3 Ile--OH] | > 100 | –
H-Tyr-Gly-Gly-Phe-Leu-Arg-Arg-Ile-Arg-Pro-Lys-Leu-Lys-Trp-Asp-Asn-Gln-OH [dynorphin A (1-17)] | – | 17.4
CN[C@@H](Cc1ccc(O)cc1)C(=O)NCC(=O)NCC(=O)N[C@@H](Cc1ccccc1)C(=O)N[C@@H](CC(C)C)C(=O)N[C@@H](CCCNC(=N)N)C(=O)N(C)[C@@H](CCCNC(=N)N)C(=O)N(C)[C@@H](C)C(=O)O [Example 31, CH3 Tyr-Gly-Gly-Phe-Leu-Arg-CH3 Arg-CH3 Ala-OH] | > 100 | –
CN[C@@H](Cc1ccc(O)cc1)C(=O)NCC(=O)NCC(=O)N[C@@H](Cc1ccccc1)C(=O)N[C@@H](CC(C)C)C(=O)N[C@@H](CCCNC(=N)N)C(=O)N(C)[C@@H](CCCNC(=N)N)C(=O)N[C@H](C)C(=O)O [Example 30, CH3 Tyr-Gly-Gly-Phe-Leu-Arg-CH3 Arg-D-Ala-OH] | > 100 | –
CCNC(=O)[C@@H](CC(C)C)NC(=O)[C@H](CCCNC(=N)N)N(C)C(=O)[C@H](CCCNC(=N)N)NC(=O)[C@H](CC(C)C)NC(=O)[C@H](Cc1ccccc1)NC(=O)CNC(=O)CNC(=O)[C@H](Cc1ccc(O)cc1)NC [Example 1, CH3 Tyr-Gly-Gly-Phe-Leu-Arg-CH3 Arg-D-Leu-NHC2 H5] | 100 | –

— patent publication US4707468A, “Polypeptide” (Eisai Co., Ltd., priority 1984, dated 1987)
